Reference: patent publication US20240262826A1, “WILD TYPE KIT INHIBITORS” (Blueprint Medicines Corporation, priority 2022, published 2024)

Assays:
[1] = target: wild type c-kit (Homo sapiens (Human), UniProt P10721); test: PathScan phospho c-kit (Tyr719) sandwich ELISA in SCF-stimulated M-07e cells (pKIT assay); type: cell-based; settings: ELISA assay (values not marked *)
How it was run: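 Tyr719-phosphorylated c-kit was measured by colorimetric (TMB) sandwich ELISA in lysates of M-07e cells. Cells were starved 4 h without serum or GM-CSF, dosed 60 min at 37 °C with compound (8 points, duplicate, 0.25% DMSO), and stimulated 10 min with human SCF (500 ng/mL as added). IC50 values came from 4-parameter logistic regression.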

[2] = target: human P-glycoprotein (P-gp, MDR1) (Homo sapiens (Human), UniProt P08183); test: MDCK-MDR1 cell monolayer drug transport assay (P-gp efflux ratio); type: in vitro ADME; settings: pH 7.4, MDCK-MDR1 cells, 1 uM concentration of compound, read-out: Pgp Efflux Ratio, 1 uM
Chain of human P-glycoprotein (P-gp, MDR1) (P08183 whole entry): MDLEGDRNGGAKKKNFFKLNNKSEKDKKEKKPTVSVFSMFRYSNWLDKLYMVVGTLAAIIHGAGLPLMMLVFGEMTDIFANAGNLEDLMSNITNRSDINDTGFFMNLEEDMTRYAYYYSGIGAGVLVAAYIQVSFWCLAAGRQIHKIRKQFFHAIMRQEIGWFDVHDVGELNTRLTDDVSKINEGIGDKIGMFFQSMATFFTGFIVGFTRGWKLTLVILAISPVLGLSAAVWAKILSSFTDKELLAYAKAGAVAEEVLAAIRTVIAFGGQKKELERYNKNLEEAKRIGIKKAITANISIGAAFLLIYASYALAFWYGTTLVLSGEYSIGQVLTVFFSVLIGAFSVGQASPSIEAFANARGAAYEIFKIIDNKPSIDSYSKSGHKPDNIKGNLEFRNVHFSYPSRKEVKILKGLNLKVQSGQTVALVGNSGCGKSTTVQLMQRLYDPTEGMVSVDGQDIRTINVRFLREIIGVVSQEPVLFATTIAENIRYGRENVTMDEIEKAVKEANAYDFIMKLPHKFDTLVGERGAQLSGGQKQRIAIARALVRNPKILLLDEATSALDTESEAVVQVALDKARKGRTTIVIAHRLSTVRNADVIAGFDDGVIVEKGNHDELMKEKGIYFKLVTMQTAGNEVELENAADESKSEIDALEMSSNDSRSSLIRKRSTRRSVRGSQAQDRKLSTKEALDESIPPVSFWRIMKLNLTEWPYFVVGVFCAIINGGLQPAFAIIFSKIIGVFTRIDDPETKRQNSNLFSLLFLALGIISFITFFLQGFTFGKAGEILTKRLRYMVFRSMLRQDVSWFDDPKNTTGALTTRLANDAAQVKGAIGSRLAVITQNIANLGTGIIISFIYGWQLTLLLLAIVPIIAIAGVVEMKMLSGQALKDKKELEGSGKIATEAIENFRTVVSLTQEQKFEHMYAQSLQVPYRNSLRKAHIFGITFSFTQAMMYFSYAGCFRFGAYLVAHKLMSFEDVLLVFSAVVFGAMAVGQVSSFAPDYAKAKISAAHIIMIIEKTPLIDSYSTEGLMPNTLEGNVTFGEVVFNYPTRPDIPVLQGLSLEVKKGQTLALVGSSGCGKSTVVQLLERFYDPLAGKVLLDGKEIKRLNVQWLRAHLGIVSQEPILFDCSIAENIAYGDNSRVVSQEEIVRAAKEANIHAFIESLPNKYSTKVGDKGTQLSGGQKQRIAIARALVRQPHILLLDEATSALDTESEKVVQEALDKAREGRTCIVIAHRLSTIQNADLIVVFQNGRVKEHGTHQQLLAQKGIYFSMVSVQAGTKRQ
How it was run: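 P-gp substrate potential tested in MDCK-MDR1 monolayers on Transwell supports, cultured 4-8 days; monolayers with TEER <42 ohms·cm2 discarded. Transport run in HBSS (10 mM HEPES, pH 7.4) at 37° C with compound working solution at 1 μM.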

[3] = test system: NIH3T3 cell lines that overexpressed the kit mutation exon 9; test: Exon 9 assay: cell viability (CellCounting Lite 2.0), 72 hours; type: cell-based; settings: Mus musculus, read-out: IC50 NIH3T3-cKit-AY502-3dup
Description: (§1) Exon 9 assay: The NIH3T3 cell lines that overexpressed the kit mutation exon 9 (or parental cells) were resuscitated and well cultured, and the cells were collected and seeded in 96-well plates at 3000/well, then the compounds were added to the 96 well plates in a gradient dilution, and the plates were incubated in an incubator for 72 hours.
(§2) After 72 hours of incubation, an equal volume of CellCounting
(§3) Lite 2.0 Luminescent Cell Viability reagent was added to the 96-well plates to detect the cell viability. The data were analyzed using GraphPad Prism 7.0 softwar e, and the nonlinear S-curve regression was used to fit the data to obtain the dose-effect curve, and the IC50 value was calculated accordingly.

[4] = target: Exon 11 KIT (Homo sapiens (Human), UniProt P10721, V560G); test: Exon 11 HMC1.1 autophosphorylation assay (Phospho-Y719 c-KIT ELISA); type: cell-based; settings: 90 minutes, read-out: IC50 HMC1.1 pKIT
Chain of Exon 11 KIT (P10721 26-976 V560G): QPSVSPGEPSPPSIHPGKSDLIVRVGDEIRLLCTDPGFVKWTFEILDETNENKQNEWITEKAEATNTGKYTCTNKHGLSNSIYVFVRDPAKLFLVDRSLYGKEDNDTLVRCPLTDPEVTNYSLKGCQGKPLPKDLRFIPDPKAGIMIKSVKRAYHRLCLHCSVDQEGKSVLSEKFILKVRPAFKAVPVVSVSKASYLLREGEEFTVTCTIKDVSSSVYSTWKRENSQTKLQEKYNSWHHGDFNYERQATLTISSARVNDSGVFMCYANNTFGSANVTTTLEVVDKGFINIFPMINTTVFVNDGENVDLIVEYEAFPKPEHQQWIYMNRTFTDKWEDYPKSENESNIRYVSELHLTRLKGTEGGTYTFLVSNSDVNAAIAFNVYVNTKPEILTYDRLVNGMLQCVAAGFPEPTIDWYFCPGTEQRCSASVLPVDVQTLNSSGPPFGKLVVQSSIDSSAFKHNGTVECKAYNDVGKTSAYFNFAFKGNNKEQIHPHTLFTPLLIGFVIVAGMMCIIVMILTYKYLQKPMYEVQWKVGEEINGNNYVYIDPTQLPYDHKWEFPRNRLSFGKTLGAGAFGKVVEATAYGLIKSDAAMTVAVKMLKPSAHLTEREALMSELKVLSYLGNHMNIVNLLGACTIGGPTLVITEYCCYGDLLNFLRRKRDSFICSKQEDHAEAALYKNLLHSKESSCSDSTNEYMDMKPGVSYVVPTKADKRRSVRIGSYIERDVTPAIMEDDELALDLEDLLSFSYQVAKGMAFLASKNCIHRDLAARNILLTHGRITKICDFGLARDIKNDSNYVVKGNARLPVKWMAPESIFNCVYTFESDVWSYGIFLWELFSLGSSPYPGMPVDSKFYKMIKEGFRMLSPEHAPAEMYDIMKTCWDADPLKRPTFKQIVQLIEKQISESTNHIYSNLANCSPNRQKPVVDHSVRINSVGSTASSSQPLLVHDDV
Description: Exon 11 HMC1.1 autophosphorylation assay: 50,000 HMC1.1 cells were incubated in 50 ul culture media (phenol-red free IMDM, no iron, no serum) in each well of a 96-well plate and serum starved 4 hours in a tissue culture incubator (5% CO2, 37° C.). An 8-point dose concentration series of compound were then added to the cells in a volume of 7 ul to each well. After 90 minutes, 14 ul of 5× AlphaLISA Lysis Buffer (Perkin Elmer) supplemented with a protease and phosphatase inhibitor cocktail (Cell Signaling Technologies) was added to each well and shaken at […] for 5 minutes at 4° C. Phospho-Y719 c-KIT ELISA kit from Cell Signaling Technology was used to assess levels of phospho KIT.

[5] = test system: NIH3T3 parental cells; test: Exon 9 assay, parental cells: cell viability (CellCounting Lite 2.0), 72 hours; type: cell-based; settings: Mus musculus
Description: as §1, §2, §3

Chain of wild type c-kit (P10721 26-976): as the sequence (P10721 26-976 V560G) above, with G535V counted along it

SMILES | IC50 [1] | efflux ratio at 2 h, 1 µM [2] | IC50 [3] | IC50 [4] | IC50 [5]
COC[C@@H](O)Cn1cc(-c2ccn3ncc(C(=O)Nc4cc(-c5nnn(C6CC6)n5)ccc4Cl)c3c2)cn1 [Example 237, (S)-N-(2-chloro-5-(2-cyclopropyl-2H-tetrazol-5-yl)phenyl)-5-(1-(2-hydroxy-3-methoxypropyl)-1H-pyrazol-4-yl)pyrazolo[1,5-a]pyridine-3-carboxamide] | 0.5 nM | 3.2 | 15.6 nM | 0.7 nM | 
COC[C@@H](O)Cn1cc(-c2ccn3ncc(C(=O)Nc4cc(-c5nnn(C6CC6)n5)ccc4Cl)c3c2)c(C)n1 [Example 263, (S)-N-(2-chloro-5-(2-cyclopropyl-2H-tetrazol-5-yl)phenyl)-5-(1-(2-hydroxy-3-methoxypropyl)-3-methyl-1H-pyrazol-4-yl)pyrazolo[1,5-a]pyridine-3-carboxamide] | 0.2 nM | 3 | 2 nM | 0.2 nM | 123 nM
Cc1cc(F)c(-c2nnn(C3CC3)n2)cc1NC(=O)c1cnn2ccc(-c3cn(CC(C)(C)O)nc3C)cc12 [Example 239, N-(5-(2-cyclopropyl-2H-tetrazol-5-yl)-4-fluoro-2-methylphenyl)-5-(1-(2-hydroxy-2-methylpropyl)-3-methyl-1H-pyrazol-4-yl)pyrazolo[1,5-a]pyridine-3-carboxamide] | 0.3 nM | 13.2 |  | 0.9 nM | 
Cc1nn(C[C@H](C)O)cc1-c1ccn2ncc(C(=O)Nc3cc(-c4nnn(C5CC5)n4)ccc3Cl)c2c1 [Example 278, (S)—N-(2-chloro-5-(2-cyclopropyl-2H-tetrazol-5-yl)phenyl)-5-(1-(2-hydroxypropyl)-3-methyl-1H-pyrazol-4-yl)pyrazolo[1,5-a]pyridine-3-carboxamide] | 0.3 nM | 3.6 |  | 0.2 nM | 
COCCNc1ccn2ncc(C(=O)Nc3cc(-c4nnn(C5CN(C(=O)OC)C5)n4)ccc3C)c2c1 [Example 148, methyl 3-(5-(3-(5-((2-methoxyethyl)amino)pyrazolo[1,5-a]pyridine-3-carboxamido)-4-methylphenyl)-2H-tetrazol-2-yl)azetidine-1-carboxylate] | 34.8 nM | 24.9 |  | 1 nM | 
Cc1nn(C[C@H](C)O)cc1-c1ccn2ncc(C(=O)Nc3cc(-c4nnn(C5CC5)n4)c(F)cc3Cl)c2c1 [Example 280, (S)—N-(2-chloro-5-(2-cyclopropyl-2H-tetrazol-5-yl)-4-fluorophenyl)-5-(1-(2-hydroxypropyl)-3-methyl-1H-pyrazol-4-yl)pyrazolo[1,5-a]pyridine-3-carboxamide] | 0.2 nM |  | 10 nM |  | 413 nM
COCCOC[C@H](O)Cn1cc(-c2ccn3ncc(C(=O)Nc4cc(-c5nnn(C6CC6)n5)c(F)cc4Cl)c3c2)c(C)n1 [Example 286, (R)—N-(2-chloro-5-(2-cyclopropyl-2H-tetrazol-5-yl)-4-fluorophenyl)-5-(1-(2-hydroxy-3-(2-methoxyethoxy)propyl)-3-methyl-1H-pyrazol-4-yl)pyrazolo[1,5-a]pyridine-3-carboxamide] | 0.3 nM |  | 42.5 nM |  | 480 nM
CCn1nnc(-c2ccc(Cl)c(NC(=O)c3cnn4ccc(-c5cn(C[C@H](O)COC)nc5C)cc34)c2)n1 [Example 284, (S)—N-(2-chloro-5-(2-ethyl-2H-tetrazol-5-yl)phenyl)-5-(1-(2-hydroxy-3-methoxypropyl)-3-methyl-1H-pyrazol-4-yl)pyrazolo[1,5-a]pyridine-3-carboxamide] | 0.2 nM |  | 7.5 nM | 0.2 nM | 161 nM
